What all share (assay): KINOMEscan competition binding
Holding throughout (settings): compound 10.0 µM

Test [1] relates to RET (human), P07949 [V804M].
The test system of test [2] is EGFR (human), P00533 [747-751 del / S ins].
In test [3] the test system is KIT (human), P10721 [V559D/V654A].
The test system of test [4] is RET (human), P07949 [M918T].
In test [5] the test system is ABL1 (human), P00519 [Y253F].
Test [6] concerns FLT3 (human), P36888 [R834Q].
The test system of test [7] is EGFR (human), P00533 [T790M].
For test [8], the system named is MET (human), P08581 [Y1235D].
Test [9] relates to KIT (human), P10721 [L576P].
Sequence of KIT (human), P10721 [L576P] (P10721 whole entry L576P, looked up): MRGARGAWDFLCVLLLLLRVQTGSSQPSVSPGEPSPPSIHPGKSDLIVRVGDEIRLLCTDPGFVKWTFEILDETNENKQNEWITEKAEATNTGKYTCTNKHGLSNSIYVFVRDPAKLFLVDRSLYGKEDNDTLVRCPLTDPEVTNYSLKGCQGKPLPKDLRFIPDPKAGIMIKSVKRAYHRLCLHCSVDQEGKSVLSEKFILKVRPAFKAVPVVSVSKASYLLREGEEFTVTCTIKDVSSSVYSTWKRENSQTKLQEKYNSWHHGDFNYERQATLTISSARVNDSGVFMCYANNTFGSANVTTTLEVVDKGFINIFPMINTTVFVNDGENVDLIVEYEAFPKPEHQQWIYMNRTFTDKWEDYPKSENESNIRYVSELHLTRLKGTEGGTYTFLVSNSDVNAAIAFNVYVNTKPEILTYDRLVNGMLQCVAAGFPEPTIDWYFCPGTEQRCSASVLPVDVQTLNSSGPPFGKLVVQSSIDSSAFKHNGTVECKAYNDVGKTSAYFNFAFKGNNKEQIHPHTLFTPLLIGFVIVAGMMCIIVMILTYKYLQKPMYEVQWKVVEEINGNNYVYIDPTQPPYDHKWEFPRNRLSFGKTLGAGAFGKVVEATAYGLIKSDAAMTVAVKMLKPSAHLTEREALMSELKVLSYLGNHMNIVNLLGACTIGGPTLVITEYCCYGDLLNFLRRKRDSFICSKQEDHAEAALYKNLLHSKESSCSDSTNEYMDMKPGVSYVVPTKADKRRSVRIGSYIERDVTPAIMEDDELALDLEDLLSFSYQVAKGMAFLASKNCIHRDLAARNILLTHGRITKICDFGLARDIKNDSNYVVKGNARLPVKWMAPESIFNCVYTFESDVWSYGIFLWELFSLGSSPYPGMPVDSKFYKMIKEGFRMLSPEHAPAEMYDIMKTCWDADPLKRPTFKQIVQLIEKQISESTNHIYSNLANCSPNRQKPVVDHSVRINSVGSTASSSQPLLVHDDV
Test [10] deals with EGFR (human), P00533 [752-759 del].
For test [11], the system named is EGFR (human), P00533 [T790M/L858R].
The subject of test [12] is FLT3 (human), P36888 [D835H].

Sequence of KIT (human), P10721 [V559D/V654A] (P10721 whole entry V559D/V654A, looked up): as the sequence (P10721 whole entry L576P, looked up) above, with V559D, P576L, V654A counted along it
Sequence of RET (human), P07949 [M918T] (P07949 whole entry M918T, looked up): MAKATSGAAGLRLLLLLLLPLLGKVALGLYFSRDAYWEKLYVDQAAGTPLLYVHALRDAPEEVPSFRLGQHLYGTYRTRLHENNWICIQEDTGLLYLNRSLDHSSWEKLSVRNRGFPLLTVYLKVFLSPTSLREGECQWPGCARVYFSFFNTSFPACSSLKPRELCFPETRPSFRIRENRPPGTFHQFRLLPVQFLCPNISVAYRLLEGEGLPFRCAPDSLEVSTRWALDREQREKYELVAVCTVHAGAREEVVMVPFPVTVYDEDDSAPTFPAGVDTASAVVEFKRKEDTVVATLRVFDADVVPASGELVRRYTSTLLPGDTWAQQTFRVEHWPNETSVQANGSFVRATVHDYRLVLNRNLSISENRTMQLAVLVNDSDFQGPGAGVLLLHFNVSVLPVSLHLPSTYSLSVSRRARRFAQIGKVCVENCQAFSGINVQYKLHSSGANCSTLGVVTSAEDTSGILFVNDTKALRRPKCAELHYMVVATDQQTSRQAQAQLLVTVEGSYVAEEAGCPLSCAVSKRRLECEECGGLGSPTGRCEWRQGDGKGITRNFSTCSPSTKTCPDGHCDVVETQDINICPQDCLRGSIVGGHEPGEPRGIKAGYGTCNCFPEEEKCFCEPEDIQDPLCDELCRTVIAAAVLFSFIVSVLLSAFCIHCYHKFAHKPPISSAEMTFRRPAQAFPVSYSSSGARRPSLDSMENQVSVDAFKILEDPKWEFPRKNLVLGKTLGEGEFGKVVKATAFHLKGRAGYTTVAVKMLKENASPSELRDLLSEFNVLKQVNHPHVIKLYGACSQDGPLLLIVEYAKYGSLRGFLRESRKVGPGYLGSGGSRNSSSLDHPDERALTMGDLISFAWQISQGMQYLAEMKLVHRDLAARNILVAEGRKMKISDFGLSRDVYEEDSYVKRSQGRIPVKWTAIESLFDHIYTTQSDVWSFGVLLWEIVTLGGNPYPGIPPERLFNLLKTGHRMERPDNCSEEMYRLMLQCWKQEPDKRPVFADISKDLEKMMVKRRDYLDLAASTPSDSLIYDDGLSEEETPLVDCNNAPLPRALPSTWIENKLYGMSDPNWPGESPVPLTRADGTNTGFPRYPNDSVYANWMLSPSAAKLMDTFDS
Sequence of RET (human), P07949 [V804M] (P07949 whole entry V804M, looked up): as the sequence (P07949 whole entry M918T, looked up) above, with V804M, T918M counted along it

`CC1=C(C(=O)Nc2cc3cn[nH]c3cc2F)C(c2ccc(C(F)(F)F)cc2)CC(=O)N1` (configuration not stated): the kinase still bound, per cent of control was 43% in [1]; 81% in [2]; 92% in test [3]; 15% in [4]; 72% in [5]; 77% in test [6]. Further, the kinase still bound, per cent of control in test [7] was determined as 40%; in test [8], 65%; in [9], 93%; in test [10] it was 90%; in test [11] it was 87%; in [12], 76%.
As for `CCCS(=O)(=O)Nc1ccc(F)c(C(=O)c2c[nH]c3ncc(Cl)cc23)c1F`, the kinase still bound, per cent of control in [1] stood at 89%; in [2] it was 75%; in test [3], 19%; in test [4] it was 40%; in test [5], 27%; in test [6] it was 100%. Also, the kinase still bound, per cent of control was determined as 48% in [7]; 100% in test [8]; 6.4% in test [9]; 73% in test [10]; 90% in [11]; 43% in test [12].
Regarding `Cc1cc([C@@H](C)Nc2ccccc2C(=O)O)c2nc(N3CCOCC3)cc(=O)n2c1`, the kinase still bound, per cent of control worked out at 100% in test [1]; 100% in [2]; 96% in test [3]; 100% in test [4]; 100% in test [5]; 94% in test [6]. Further, the kinase still bound, per cent of control stood at 100% in test [7]; 78% in test [8]; 95% in test [9]; 100% in test [10]; 99% in test [11]; 27% in test [12].
Take `C=CC(=O)Nc1cccc(Nc2nc(N[C@H]3CC[C@H](N(C)C)CC3)nc3c2ncn3C(C)C)c1`: the kinase still bound, per cent of control in test [1] came to 71%; in test [2], 90%; in [3], 44%; in test [4] it was 100%; in test [5], 62%; in test [6], 8.4%. Further, the kinase still bound, per cent of control in [7] was found to be 68%; in test [8], 100%; in [9], 33%; in [10], 82%; in [11], 100%; in test [12] it was 5.4%.
As to `O=C(NC1CC1)c1cccc(-c2ccc3c(NC(=O)C4CC4)n[nH]c3c2)c1`, the kinase still bound, per cent of control is 84% in [1]; 74% in test [2]; 90% in test [3]; 71% in [4]; 60% in test [5]; 67% in test [6]. The kinase still bound, per cent of control in test [7] came to 100%; in [8], 74%; in test [9], 51%; in test [10], 72%; in test [11] it was 100%; in test [12] it was 47%.
Turning to `COc1cc2c(Nc3ccc(NC(=O)c4ccccc4)cc3)ncnc2cc1OCCCN1CCOCC1`, the kinase still bound, per cent of control in test [1] was 12%; in test [2], 26%; in test [3] it was 5.8%; in [4] it was 0.1%; in test [5] it was 35%; in test [6], 34%. For the same compound, the kinase still bound, per cent of control in test [7] worked out at 42%; in [9] it was 0%; in [10] it was 14%; in test [11], 85%; in [12], 13%.
For the compound `O=C(O)c1ccc(Nc2ncc3c(n2)-c2ccc(Cl)cc2C(c2c(F)cccc2F)=NC3)cc1`, the kinase still bound, per cent of control amounted to 89% in test [1]; 60% in test [3]; 54% in test [4]; 100% in [6]; 50% in test [7]; 51% in [8]. In addition, the kinase still bound, per cent of control in [9] was 60%; in [10], 34%.
On to `CCN(CCO)CCCOc1ccc2c(Nc3cc(CC(=O)Nc4cccc(F)c4)[nH]n3)ncnc2c1`, for which the kinase still bound, per cent of control is 5.5% in test [1]; 0.2% in test [4]; 28% in test [5]; 14% in test [6]; 30% in test [8]; 0% in [9]. This compound came in with a kinase still bound, per cent of control in test [12] of 4%.
For the compound `Cc1ccc2nc(NCCN)c3ncc(C)n3c2c1`, the kinase still bound, per cent of control in [1], in [2], in [3], in test [4], in test [5] and in test [6] was 100% in each case. The kinase still bound, per cent of control in [7] is 50%; in [8], 100%; in [10], 100%; in test [11], 100%; in test [12], 100%.
For `N#Cc1c(NC(=O)c2cccc3ccccc23)sc2c1CCCC2`, the kinase still bound, per cent of control is 92% in test [1]; 100% in [3]; 95% in [4]; 95% in test [5]; 88% in test [6]; 71% in [8]. The results for the kinase still bound, per cent of control in test [9] and in [12] were 79% and 84%, respectively.
Take `O=C(NOC[C@H](O)CO)c1ccc(F)c(F)c1Nc1ccc(I)cc1F`: the kinase still bound, per cent of control came out at 100% in test [1]; 51% in test [2]; 100% in test [3]; 79% in [4]; 78% in test [6]; 77% in test [7]. Moreover, the kinase still bound, per cent of control in test [8] is 100%; in [9], 75%; in test [10], 70%; in test [11], 100%; in [12], 87%.
In the case of `N#C/C(=C1/Nc2ccccc2S1)c1ccnc(NCCc2cccnc2)n1`, the kinase still bound, per cent of control in test [1] turned out to be 88%; in test [3], 100%; in [4] it was 100%; in test [5], 100%; in test [6], 68%; in test [8] it was 88%. In addition, the kinase still bound, per cent of control was 33% in [9] and 83% in [12].
As to `CCOc1cc2ncc(C#N)c(Nc3ccc(OCc4ccccn4)c(Cl)c3)c2cc1NC(=O)/C=C/CN(C)C`, the kinase still bound, per cent of control was 91% in test [1]; 100% in [4]; 100% in test [6]; 86% in [8]; 94% in [12].
In the case of `CC(=O)c1c(C)c2cnc(Nc3ccc(N4CCNCC4)cn3)nc2n(C2CCCC2)c1=O`, the kinase still bound, per cent of control in [1] turned out to be 14%; in [5], 59%; in [6] it was 61%; in test [7], 39%; in [8], 58%; in test [9], 24%. Besides, the kinase still bound, per cent of control in test [10] amounted to 87%; in [11], 60%; in [12], 22%.
For `CCCS(=O)(=O)Nc1ccc(F)c(C(=O)c2c[nH]c3ncc(-c4ccc(Cl)cc4)cc23)c1F`, the kinase still bound, per cent of control in [1] came to 91%; in test [2], 78%; in [3], 26%; in test [4], 28%; in test [6], 100%; in test [8] it was 78%. The figures for the kinase still bound, per cent of control in [9], in [10] and in [11] were 0%, 71% and 100%, respectively.

Values taken from the kinase profiling compilation of Christmann-Franck et al. (2016).
